# US20220096487A1 (priority 2019, published 2022)
# “And” between values parts separate entries of the source, which are not always exact repeats. Equal values may be shown once. “Also recorded” adds a separate entry of the source. Marks after values point to notes of the source that are not given here.
# How the values were obtained:
# [1] = test system: L5178Y mouse lymphoma; test: Mouse lymphoma assay
# [2] = Plasma protein binding in vitro; type: in vitro ADME; conditions: human, human plasma proteins, read-out: % Bound to human plasma proteins (converted)
# [3] = Hypersensitivity reactions in Phase 3 clinical trials of dolutegravir; type: in vivo, human; conditions: subjects receiving dolutegravir in Phase 3 clinical trials
# Source text: Discontinue the combination immediately if signs or symptoms of hypersensitivity reactions develop (including, but not limited to, severe rash or rash accompanied by fever, general malaise, fatigue, muscle or joint aches, blisters or peeling of the skin, oral blisters or lesions, conjunctivitis, facial edema, hepatitis, eosinophilia, angioedema, difficulty breathing). Clinical status, including liver aminotransferases, should be monitored and appropriate therapy initiated.
# [4] = Multiple-dose pharmacokinetic properties (Table 7); type: in vivo, human; conditions: population PK, ART treatment-naive adults, 50 mg dolutegravir once daily
# [5] = molecular target: T1, P-gp (Homo sapiens, UniProt P08183); test: In vitro substrate assessment, P-gp; type: in vitro ADME
# [6] = In vivo rodent micronucleus assay
# [7] = molecular target: CYP2C19 (Homo sapiens, UniProt P33261); test: In vitro inhibition of CYP2C19; type: in vitro ADME; conditions: did not inhibit
# [8] = Excretion into milk of lactating rats; type: in vivo; conditions: female, rat, milk / maternal plasma; single oral dose of 50 mg/kg on lactation Day 10; 8 hours postdose; read-out: Milk concentration relative to maternal plasma concentration
# [9] = molecular target: UGT1A1 (Homo sapiens, UniProt P22309); test: In vitro inhibition of UGT1A1; type: in vitro ADME; conditions: did not inhibit
# [10] = molecular target: OCT1 (Homo sapiens, UniProt O15245); test: In vitro inhibition of OCT1; type: in vitro ADME; conditions: did not inhibit
# [11] = test system: HIV; test: Antiviral activity in combination with other antiviral agents; type: cell-based
# [12] = molecular target: T2, BCRP (Homo sapiens, UniProt Q9UNQ0); test: In vitro substrate assessment, BCRP; type: in vitro ADME
# T2 sequence (Q9UNQ0 1-655): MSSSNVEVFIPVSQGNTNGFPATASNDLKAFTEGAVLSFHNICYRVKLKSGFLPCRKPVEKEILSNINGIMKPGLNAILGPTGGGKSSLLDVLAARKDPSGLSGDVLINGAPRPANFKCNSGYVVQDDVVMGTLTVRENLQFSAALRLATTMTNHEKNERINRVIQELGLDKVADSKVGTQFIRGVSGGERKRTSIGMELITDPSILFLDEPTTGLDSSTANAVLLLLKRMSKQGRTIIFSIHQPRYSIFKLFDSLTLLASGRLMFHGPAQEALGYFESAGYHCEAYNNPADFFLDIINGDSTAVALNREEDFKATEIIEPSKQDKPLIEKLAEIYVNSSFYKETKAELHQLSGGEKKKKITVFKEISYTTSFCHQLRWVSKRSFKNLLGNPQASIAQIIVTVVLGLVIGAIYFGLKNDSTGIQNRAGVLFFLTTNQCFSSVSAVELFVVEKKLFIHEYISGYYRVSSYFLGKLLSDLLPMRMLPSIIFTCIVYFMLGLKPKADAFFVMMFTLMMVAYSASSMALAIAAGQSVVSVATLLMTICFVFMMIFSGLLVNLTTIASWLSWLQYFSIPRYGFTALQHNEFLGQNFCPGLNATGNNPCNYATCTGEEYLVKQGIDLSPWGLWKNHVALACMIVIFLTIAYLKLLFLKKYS
# [13] = molecular target: CYP2D6 (Homo sapiens, UniProt P10635); test: In vitro inhibition of CYP2D6; type: in vitro ADME; conditions: did not inhibit
# [14] = molecular target: CYP2C8 (Homo sapiens, UniProt P10632); test: In vitro inhibition of CYP2C8; type: in vitro ADME; conditions: did not inhibit
# [15] = molecular target: MRP4 (Homo sapiens, UniProt O15439); test: In vitro inhibition of MRP4; type: in vitro ADME; conditions: did not inhibit
# [16] = molecular target: OATP1B3 (Homo sapiens, UniProt Q9NPD5); test: In vitro inhibition of OATP1B3; type: in vitro ADME; conditions: did not inhibit
# [17] = test system: CYP3A; test: In vitro inhibition of CYP3A; type: in vitro ADME; conditions: human, did not inhibit
# [18] = test system: OAT1 and OAT3; test: In vivo effect on OAT1 and OAT3 substrates
# [19] = test system: CYP2B6; test: In vitro induction of CYP2B6; type: in vitro ADME
# [20] = molecular target: bile salt export pump (BSEP) (Homo sapiens, UniProt O95342); test: In vitro inhibition of BSEP; type: in vitro ADME; conditions: did not inhibit
# [21] = Single-dose mass balance study of [14C] dolutegravir; type: in vivo, human
# [22] = molecular target: organic anion transporter polypeptide (OATP)1B1 (Homo sapiens, UniProt Q9Y6L6); test: In vitro inhibition of OATP1B1; type: in vitro ADME; conditions: did not inhibit
# [23] = Pharmacokinetic properties of the components (Table 6); type: in vivo, human; conditions: in vivo
# [24] = molecular target: CYP2B6 (Homo sapiens, UniProt P20813); test: In vitro inhibition of CYP2B6; type: in vitro ADME; conditions: did not inhibit
# [25] = test system: CYP1A2; test: In vitro induction of CYP1A2; type: in vitro ADME
# [26] = test system: laboratory strains of wild-type HIV-1; test: Antiviral activity against laboratory strains in PBMCs and MT-4 cells; type: cell-based; conditions: Human immunodeficiency virus 1, MT4
# [27] = Carcinogenicity studies in rats; conditions: two-year study, doses up to 50 mg/kg, highest dose tested
# [28] = molecular target: T1, P-gp; test: In vitro inhibition of P-gp; type: in vitro ADME; conditions: did not inhibit
# [29] = molecular target: MATE1 (Homo sapiens, UniProt Q96FL8); test: In vitro inhibition of MATE1; type: in vitro ADME
# T1 sequence (P08183 whole entry): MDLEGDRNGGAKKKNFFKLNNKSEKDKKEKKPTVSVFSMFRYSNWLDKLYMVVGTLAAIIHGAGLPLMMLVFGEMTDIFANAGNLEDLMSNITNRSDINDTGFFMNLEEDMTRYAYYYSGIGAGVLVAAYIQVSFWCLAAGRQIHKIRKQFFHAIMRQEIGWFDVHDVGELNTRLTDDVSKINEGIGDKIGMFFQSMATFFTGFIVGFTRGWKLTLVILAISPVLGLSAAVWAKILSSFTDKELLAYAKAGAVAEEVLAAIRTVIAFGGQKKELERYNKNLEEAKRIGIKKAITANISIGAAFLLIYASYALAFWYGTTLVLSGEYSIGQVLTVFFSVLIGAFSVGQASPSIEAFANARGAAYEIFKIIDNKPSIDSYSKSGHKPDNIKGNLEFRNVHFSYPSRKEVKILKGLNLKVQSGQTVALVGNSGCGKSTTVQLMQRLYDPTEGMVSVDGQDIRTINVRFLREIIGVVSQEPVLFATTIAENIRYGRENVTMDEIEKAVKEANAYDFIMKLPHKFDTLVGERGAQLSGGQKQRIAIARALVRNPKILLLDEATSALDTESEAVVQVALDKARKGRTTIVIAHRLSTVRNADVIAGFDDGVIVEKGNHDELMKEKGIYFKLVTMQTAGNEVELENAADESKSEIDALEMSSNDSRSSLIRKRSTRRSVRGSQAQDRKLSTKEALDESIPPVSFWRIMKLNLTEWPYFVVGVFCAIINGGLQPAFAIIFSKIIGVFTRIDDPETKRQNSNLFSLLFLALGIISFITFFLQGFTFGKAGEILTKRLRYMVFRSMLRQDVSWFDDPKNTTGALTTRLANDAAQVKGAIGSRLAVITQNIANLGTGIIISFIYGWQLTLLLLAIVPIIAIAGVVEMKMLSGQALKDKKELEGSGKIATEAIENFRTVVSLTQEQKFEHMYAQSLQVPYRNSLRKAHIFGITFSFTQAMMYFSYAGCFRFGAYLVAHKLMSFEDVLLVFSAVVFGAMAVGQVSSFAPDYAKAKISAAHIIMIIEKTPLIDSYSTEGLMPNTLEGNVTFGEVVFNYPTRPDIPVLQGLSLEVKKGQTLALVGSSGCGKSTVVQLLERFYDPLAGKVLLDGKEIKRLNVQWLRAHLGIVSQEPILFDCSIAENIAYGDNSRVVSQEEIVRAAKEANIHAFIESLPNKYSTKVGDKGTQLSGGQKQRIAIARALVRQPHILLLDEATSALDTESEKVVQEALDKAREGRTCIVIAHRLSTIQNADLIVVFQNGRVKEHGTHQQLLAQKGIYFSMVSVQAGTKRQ
# Sequence of CYP2C19 (P33261 whole entry): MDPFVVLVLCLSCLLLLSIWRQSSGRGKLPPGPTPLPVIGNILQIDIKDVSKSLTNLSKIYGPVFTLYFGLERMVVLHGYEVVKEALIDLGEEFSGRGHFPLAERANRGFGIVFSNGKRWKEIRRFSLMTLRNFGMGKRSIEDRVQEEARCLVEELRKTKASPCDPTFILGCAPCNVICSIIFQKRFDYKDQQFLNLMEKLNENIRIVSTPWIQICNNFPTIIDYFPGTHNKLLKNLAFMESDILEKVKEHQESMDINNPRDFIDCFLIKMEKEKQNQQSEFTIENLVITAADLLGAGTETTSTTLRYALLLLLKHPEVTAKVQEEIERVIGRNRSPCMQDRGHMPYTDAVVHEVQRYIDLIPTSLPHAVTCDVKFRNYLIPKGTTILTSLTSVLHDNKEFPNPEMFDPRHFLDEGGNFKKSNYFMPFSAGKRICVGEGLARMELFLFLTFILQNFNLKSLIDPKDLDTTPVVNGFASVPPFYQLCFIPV
# Sequence of OCT1 (O15245 whole entry): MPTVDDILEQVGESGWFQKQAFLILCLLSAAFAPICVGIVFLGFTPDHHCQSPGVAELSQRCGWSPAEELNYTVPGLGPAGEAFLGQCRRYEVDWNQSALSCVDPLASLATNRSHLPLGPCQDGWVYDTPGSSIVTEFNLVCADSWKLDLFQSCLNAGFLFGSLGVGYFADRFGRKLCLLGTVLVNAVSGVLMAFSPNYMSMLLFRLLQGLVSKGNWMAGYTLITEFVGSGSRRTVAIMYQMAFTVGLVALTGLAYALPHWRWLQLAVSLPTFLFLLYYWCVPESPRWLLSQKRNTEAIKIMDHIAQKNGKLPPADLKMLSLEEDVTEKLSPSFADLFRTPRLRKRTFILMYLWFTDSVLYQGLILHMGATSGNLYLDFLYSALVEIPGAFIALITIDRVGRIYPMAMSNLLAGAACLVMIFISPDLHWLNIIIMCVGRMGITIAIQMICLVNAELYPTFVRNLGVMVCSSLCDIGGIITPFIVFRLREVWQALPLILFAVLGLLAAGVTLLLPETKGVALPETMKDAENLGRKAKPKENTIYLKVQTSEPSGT
# Sequence of CYP2C8 (P10632 whole entry): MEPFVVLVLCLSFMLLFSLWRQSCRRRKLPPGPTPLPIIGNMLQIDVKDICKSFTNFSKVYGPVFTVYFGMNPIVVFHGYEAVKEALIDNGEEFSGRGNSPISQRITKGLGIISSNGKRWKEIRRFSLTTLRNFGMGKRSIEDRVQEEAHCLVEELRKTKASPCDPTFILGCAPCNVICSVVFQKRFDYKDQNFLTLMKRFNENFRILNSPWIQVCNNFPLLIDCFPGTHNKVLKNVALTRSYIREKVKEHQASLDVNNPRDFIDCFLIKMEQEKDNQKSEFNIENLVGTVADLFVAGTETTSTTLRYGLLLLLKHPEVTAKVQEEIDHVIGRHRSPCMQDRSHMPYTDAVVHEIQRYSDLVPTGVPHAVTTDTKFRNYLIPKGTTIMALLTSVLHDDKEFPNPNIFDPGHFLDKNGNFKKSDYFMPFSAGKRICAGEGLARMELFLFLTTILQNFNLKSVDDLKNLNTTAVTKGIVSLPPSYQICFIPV
# Sequence of organic anion transporter polypeptide (OATP)1B1 (Q9Y6L6 whole entry): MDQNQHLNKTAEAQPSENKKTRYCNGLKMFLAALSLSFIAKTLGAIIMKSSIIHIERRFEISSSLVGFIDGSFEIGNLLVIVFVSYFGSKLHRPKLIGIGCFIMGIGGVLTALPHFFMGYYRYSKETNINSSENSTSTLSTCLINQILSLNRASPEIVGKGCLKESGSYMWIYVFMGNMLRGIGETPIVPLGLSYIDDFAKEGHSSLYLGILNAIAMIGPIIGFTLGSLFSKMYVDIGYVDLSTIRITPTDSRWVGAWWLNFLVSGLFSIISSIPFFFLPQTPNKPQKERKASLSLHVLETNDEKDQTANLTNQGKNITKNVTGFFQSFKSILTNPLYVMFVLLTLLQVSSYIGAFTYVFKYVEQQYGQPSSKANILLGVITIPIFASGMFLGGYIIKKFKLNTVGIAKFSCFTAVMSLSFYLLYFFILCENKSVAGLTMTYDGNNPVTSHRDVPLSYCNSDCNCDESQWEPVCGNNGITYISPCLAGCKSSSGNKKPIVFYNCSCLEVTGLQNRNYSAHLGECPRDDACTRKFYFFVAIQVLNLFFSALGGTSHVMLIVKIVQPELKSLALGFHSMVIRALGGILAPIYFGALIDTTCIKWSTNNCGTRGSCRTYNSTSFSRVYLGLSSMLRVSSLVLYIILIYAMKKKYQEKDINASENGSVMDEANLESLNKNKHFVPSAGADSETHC
# Sequence of bile salt export pump (BSEP) (O95342 whole entry): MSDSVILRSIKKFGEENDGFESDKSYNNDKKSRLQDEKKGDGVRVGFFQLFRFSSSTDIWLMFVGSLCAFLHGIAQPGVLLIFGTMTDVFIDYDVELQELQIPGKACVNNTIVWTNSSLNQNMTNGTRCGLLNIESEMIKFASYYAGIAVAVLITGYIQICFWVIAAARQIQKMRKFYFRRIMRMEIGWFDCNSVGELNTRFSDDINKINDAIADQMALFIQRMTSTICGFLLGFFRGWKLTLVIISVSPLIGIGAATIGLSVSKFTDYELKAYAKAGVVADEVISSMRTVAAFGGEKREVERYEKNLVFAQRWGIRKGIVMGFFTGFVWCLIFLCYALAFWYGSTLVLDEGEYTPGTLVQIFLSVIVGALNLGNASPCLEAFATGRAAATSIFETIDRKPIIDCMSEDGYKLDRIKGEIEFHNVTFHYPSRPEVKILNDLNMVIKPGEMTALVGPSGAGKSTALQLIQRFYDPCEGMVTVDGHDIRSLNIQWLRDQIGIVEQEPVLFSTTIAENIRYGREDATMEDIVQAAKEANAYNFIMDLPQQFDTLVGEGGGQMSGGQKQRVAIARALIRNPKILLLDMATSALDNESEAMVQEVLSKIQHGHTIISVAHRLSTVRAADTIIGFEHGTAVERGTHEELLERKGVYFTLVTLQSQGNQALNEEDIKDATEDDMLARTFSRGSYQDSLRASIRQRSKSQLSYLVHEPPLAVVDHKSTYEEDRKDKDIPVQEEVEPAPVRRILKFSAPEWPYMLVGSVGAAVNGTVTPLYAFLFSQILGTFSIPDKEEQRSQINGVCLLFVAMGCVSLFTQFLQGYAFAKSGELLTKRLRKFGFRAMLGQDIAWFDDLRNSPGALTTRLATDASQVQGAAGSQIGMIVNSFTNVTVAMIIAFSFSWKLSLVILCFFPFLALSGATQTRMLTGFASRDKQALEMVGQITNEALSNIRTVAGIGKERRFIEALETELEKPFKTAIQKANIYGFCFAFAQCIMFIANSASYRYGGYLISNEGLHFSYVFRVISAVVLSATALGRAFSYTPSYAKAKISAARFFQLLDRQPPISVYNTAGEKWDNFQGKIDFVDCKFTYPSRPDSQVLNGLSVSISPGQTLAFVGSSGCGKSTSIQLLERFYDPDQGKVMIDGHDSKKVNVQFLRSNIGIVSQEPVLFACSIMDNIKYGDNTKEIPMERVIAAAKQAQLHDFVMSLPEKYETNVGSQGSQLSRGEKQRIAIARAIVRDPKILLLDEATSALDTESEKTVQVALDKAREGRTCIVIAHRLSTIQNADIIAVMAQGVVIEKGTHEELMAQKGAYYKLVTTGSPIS
structure (smiles),measurement,setting,value
"C[C@@H]1CCO[C@H]2Cn3cc(C(=O)NCc4ccc(F)cc4F)c(=O)c(O)c3C(=O)N12 [Dolutegravir, dolutegravir]","Genotoxicity/mutagenicity, mouse lymphoma assay",[1],not genotoxic
same,fraction unbound,[2],~0.01
same,"Hypersensitivity reactions, % of subjects",[3],< 1%
same,"AUCtau, Mean (CV %)",[4],53.6 (27%) mcg/h/mL
same,"Cmax, Mean (CV %)",[4],3.67 (20%) mcg/mL
same,"Ctrough, Mean (CV %)",[4],1.11 (46%) mcg/mL
same,Substrate of P-gp,[5],substrate
same,"Genotoxicity, in vivo rodent micronucleus assay",[6],not genotoxic
same,IC50,[7],> 50 µM
same,Kp at 8 h,[8],≤ 1.3
same,IC50,[9],> 50 µM
same,IC50,[10],> 50 µM
same,Antagonism with tested anti-HIV agents,[11],Neither dolutegravir nor lamivudine were antagonistic
same,Substrate of BCRP,[12],substrate
same,IC50,[13],> 50 µM
same,IC50,[14],> 50 µM
same,IC50,[15],> 50 µM
same,IC50,[16],> 50 µM
same,IC50,[17],> 50 µM
same,"Effect on plasma concentrations of tenofovir or para-amino hippurate, substrates of OAT1 and OAT3",[18],did not alter
same,Induction of CYP2B6,[19],did not induce
same,IC50,[20],> 50 µM
same,% of dose excreted as total 14C in feces,[21]; single dose,64%
same,% of dose excreted as total 14C in urine,[21]; single dose,31^b %
same,% of dose excreted as unchanged drug in feces,[21]; single dose,53%
same,% of dose excreted as unchanged drug in the urine,[21]; single-dose mass balance study of [14C] dolutegravir,<1^b %
same,IC50,[22],> 50 µM
same,half-life,[23]; human,~840 min
same,Major route of elimination,[23],Metabolism
same,Metabolic pathways,[23],UGT1A1; also recorded: CYP3A (minor)
same,"Tmax, median",[23],2.5 h
same,IC50,[24],> 50 µM
same,Induction of CYP1A2,[25],did not induce
same,EC50,[26],0.5 nM to 2.1 nM and 0.00021 µg/mL to 0.00085 µg/mL
same,AUC exposure multiple of human (50 mg once daily) with no increases in drug-related neoplasms,[27],17 times
same,IC50,[28],> 50 µM
same,IC50,[29],6.34 µM
